Where two headings read alike, the source gives them in different places.
Legend:
[1] = tested on: HCV genotype 1b (Con1) replicon in HUH-7 cells; assay: HCV replicon luciferase reporter assay, genotype 1b; format: cell-based; details: Hepatitis C virus, Huh-7, 72 h, 3 days incubation, read-out: LE_1b (EC50, range)
Procedure, shortened: (§1)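 Replicon inhibition for both genotypes was measured as Renilla luciferase signal (EnduRen, 7.5 μM final, 2 h) after 3-day, 37° C exposure of replicon-bearing HUH-7 cells in 4% FCS DMEM, 0.5% DMSO. The 1b construct carries S1179I; the 1a H77 construct carries P1496L and S2204I. Twenty-point, 3-fold dilutions were fitted four-parametrically for EC50, and CC50 was taken from multiplexed Cell Titer-Blue.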

[2] = tested on: HCV genotype 1a (H77 strain) replicon in HUH-7 cells; assay: HCV replicon luciferase reporter assay, genotype 1a; format: cell-based; details: Hepatitis C virus, Huh-7, 72 h, 3 days incubation, read-out: LE_1a (EC50, range)
Procedure, shortened: as §1

[3] = HCV genotype 1b replicon luciferase
[4] = HCV genotype 1a replicon luciferase
[5] = GETYPE1B, HCV genotype 1b replicon luciferase
[6] = GETYPE1A, HCV genotype 1a replicon luciferase
[7] = HCV genotype 1b replicon luciferase assay, range class
[8] = HCV genotype 1a replicon luciferase assay, range class

Row | Structure (SMILES) | EC50 [1, 3] [nM] | EC50 [2, 4] [nM] | EC50 [1, 7] [nM] | EC50 [2, 8] [nM] | further results
1 | C[C@H]1CC/C=C\[C@@H]2C[C@@]2(C(=O)NS(=O)(=O)C2(CF)CC2)NC(=O)[C@@H]2C[C@@H](Oc3nc4c(c5ccccc35)OCCC4)CN2C(=O)[C@@H](NC(=O)OC(C)(C)C(F)(F)F)[C@H](C)C1 [Compound 6029, 1,1,1-trifluoro-2-methylpropan-2-yl((2R,6S,7R,9S,13aS,14aR,16aS,Z)-2-((3,4-dihydro-2H-pyrano[3,2-c]isoquinolin-6-yl)oxy)-14a-(((1-(fluoromethyl)cyclopropyl)sulfonyl)carbamoyl)-7,9-dimethyl-5,16-dioxo-1,2,3,5,6,7,8,9,10,11,13a,14,14a,15,16,16a-hexadecahydrocyclopropa[e]pyrrolo[1,2-a][1,4]diazacyclopentadecin-6-yl)carbamate] | 4.82 to 103 | 4.82 to 103 |  |  | 
2 | CC[C@@H]1C[C@H](C)CC/C=C\[C@@H]2C[C@@]2(C(=O)NS(=O)(=O)C2(C)CC2)NC(=O)[C@@H]2C[C@@H](Oc3ncc(OC)c4c(Cl)cccc34)CN2C(=O)[C@H]1NC(=O)OC(C)(C)C(F)(F)F [Compound 4253] |  |  |  |  | EC50 [1, 5]: 0.51 to 1 nM; EC50 [2, 6]: 1.01 to 5 nM
3 | COCCOc1cnc(O[C@@H]2C[C@H]3C(=O)N[C@]4(C(=O)NS(=O)(=O)C5(C)CC5)C[C@H]4/C=C\CC[C@@H](C)C[C@@H](C)[C@H](NC(=O)OC(C)(C)C(C)(F)F)C(=O)N3C2)c2ccc(OC)cc12 [Compound 1149, 3,3-difluoro-2-methylbutan-2-yl((2R,6S,7R,9R,13aS,14aR,16aS,Z)-2-((6-methoxy-4-(2-methoxyethoxyl)isoquinolin-1-yl)oxy)-7,9-dimethyl-14a-(((1-methylcyclopropyl)sulfonyl)carbamoyl)-5,16-dioxo-1,2,3,5,6,7,8,9,10,11,13a,14,14a,15,16,16a-hexadecahydrocyclopropa[e]pyrrolo[1,2-a][1,4]diazacyclopentadecin-6-yl)carbamate] |  |  | < 5.46 | < 5.46 | 
4 | COc1ccc2ncc(O[C@@H]3C[C@H]4C(=O)N[C@]5(C(=O)NS(=O)(=O)C6(CF)CC6)C[C@H]5/C=C\CC[C@@H](C)C[C@@H](C)[C@H](NC(=O)OC(C)(C)C)C(=O)N4C3)nc2c1 [Compound 4089, tert-butyl (2R,6S,7R,9R,13aS,14aR,16aS,Z)-14a-(1-(fluoromethyl)cyclopropylsulfonylcarbamoyl)-2-(7-methoxyquinoxalin-2-yloxy)-7,9-dimethyl-5,16-dioxo-1,2,3,5,6,7,8,9,10,11,13a,14,14a,15,16,16a-hexadecahydrocyclopropa[e]pyrrolo[1,2-a][1,4]diazacyclopentadecin-6-ylcarbamate] | < 5.46 | 4.82 to 103 |  |  | 
5 | COc1ccc2c(O[C@@H]3C[C@H]4C(=O)N[C@]5(C(=O)NS(=O)(=O)C6(CF)CC6)C[C@H]5/C=C\CC[C@@H](C)C[C@@H](C)[C@H](NC(=O)OC5(C(F)(F)F)CCCOC5)C(=O)N4C3)ncc(C(F)(F)F)c2c1 (stereo partly drawn) [Compound 1177, 3-(trifluoromethyl)tetrahydro-2H-pyran-3-yl((2R,6S,7R,9R,13aS,14aR,16aS,Z)-14a-(((1-(fluoromethyl)cyclopropyl)sulfonyl)carbamoyl)-2-((6-methoxy-4-(trifluoromethyl)isoquinolin-1-yl)oxy)-7,9-dimethyl-5,16-dioxo-1,2,3,5,6,7,8,9,10,11,13a,14,14a,15,16,16a-hexadecahydrocyclopropa[e]pyrrolo[1,2-a][1,4]diazacyclopentadecin-6-yl)carbamate] |  |  | < 5.46 | < 5.46 | 
6 | COc1cc2ccnc(O[C@@H]3C[C@H]4C(=O)N[C@]5(C(=O)NS(=O)(=O)C6(CF)CC6)C[C@H]5/C=C\CC[C@@H](C)C[C@@H](C)[C@H](NC(=O)C5(C(F)(F)F)CC5)C(=O)N4C3)c2cc1F [Compound 4090, (2R,6S,7R,9R,13aS,14aR,16aS,Z)-2-(7-fluoro-6-methoxyisoquinolin-1-yloxy)-N-(1-(fluoromethyl)cyclopropylsulfonyl)-7,9-dimethyl-5,16-dioxo-6-(1-(trifluoromethyl)cyclopropanecarboxamido)-1,2,3,5,6,7,8,9,10,11,13a,14,14a,15,16,16a-hexadecahydrocyclopropa[e]pyrrolo[1,2-a][1,4]diazacyclopentadecine-14a-carboxamide] | < 5.46 | < 5.46 |  |  | 
7 | CC(C)n1nc(O[C@@H]2C[C@H]3C(=O)N[C@]4(C(=O)NS(=O)(=O)C5CC5)C[C@H]4/C=C\CC[C@@H](C)C[C@@H](C)[C@H](NC(=O)OC(C)(C)C(F)(F)F)C(=O)N3C2)c2ccccc2c1=O [Compound 1010, 1,1,1-trifluoro-2-methylpropan-2-yl((2R,6S,7R,9R,13aS,14aR,16aS,Z)-14a-((cyclopropylsulfonyl)carbamoyl)-2-((3-isopropyl-4-oxo-3,4-dihydrophthalazin-1-yl)oxy)-7,9-dimethyl-5,16-dioxo-1,2,3,5,6,7,8,9,10,11,13a,14,14a,15,16,16a-hexadecahydrocyclopropa[e]pyrrolo[1,2-a][1,4]diazacyclopentadecin-6-yl)carbamate] |  |  | 4.82 to 103 | 4.82 to 103 | 
8 | C[C@H]1CC/C=C\[C@@H]2C[C@@]2(C(=O)NS(=O)(=O)C2(C)CC2)NC(=O)[C@@H]2C[C@@H](Oc3ncc(OCC(F)F)c4ccccc34)CN2C(=O)[C@@H](NC(=O)OC(C)(C)C)[C@H](C)C1 [Compound 1025, tert-butyl ((2R,6S,7R,9S,13aS,14aR,16aS,Z)-2-((4-(2,2-difluoroethoxyl)isoquinolin-1-yl)oxy)-7,9-dimethyl-14a-(((1-methylcyclopropyl)sulfonyl)carbamoyl)-5,16-dioxo-1,2,3,5,6,7,8,9,10,11,13a,14,14a,15,16,16a-hexadecahydrocyclopropa[e]pyrrolo[1,2-a][1,4]diazacyclopentadecin-6-yl)carbamate] |  |  | < 5.46 | 4.82 to 103 | 
9 | C[C@@H]1CC/C=C\[C@@H]2C[C@@]2(C(=O)NS(=O)(=O)C2CC2)NC(=O)[C@@H]2C[C@@H](Oc3nccc4c5c(ccc34)OC(F)(F)O5)CN2C(=O)[C@@H](NC(=O)OC(C)(C)C)[C@H](C)C1 [Compound 5257, tert-butyl ((2R,6S,7R,9R,13aS,14aR,16aS,Z)-14a-((cyclopropylsulfonyl)carbamoyl)-2-((2,2-difluoro-[1,3]dioxolo[4,5-f]isoquinolin-6-yl)oxy)-7,9-dimethyl-5,16-dioxo-1,2,3,5,6,7,8,9,10,11,13a,14,14a,15,16,16a-hexadecahydrocyclopropa[e]pyrrolo[1,2-a][1,4]diazacyclopentadecin-6-yl)carbamate] | < 5.46 | < 5.46 |  |  | 
10 | COc1ccc2c(O[C@@H]3C[C@H]4C(=O)N[C@]5(C(=O)NS(=O)(=O)C6CC6)C[C@H]5/C=C\CC[C@@H](C)C[C@@H](C)[C@H](NC(=O)OC(C)(C)C(F)(F)F)C(=O)N4C3)nc(-c3ccc(OC(C)C)cc3)cc2c1 [Compound 4027] |  |  |  |  | EC50 [1, 5]: < 5.46 nM; EC50 [2, 6]: < 5.46 nM
11 | COc1ccc2c(O[C@@H]3C[C@H]4C(=O)N[C@]5(C(=O)NS(=O)(=O)C6(C)CC6)C[C@H]5/C=C\CC[C@@H](C)C[C@@H](C)[C@H](NC(=O)OC(C)(C)C)C(=O)N4C3)ncc(-c3ccc(OC)nc3)c2c1 [Compound 4087, tert-butyl (2R,6S,7R,9R,13aS,14aR,16aS,Z)-2-(6-methoxy-4-(6-methoxypyridin-3-yl)isoquinolin-1-yloxy)-7,9-dimethyl-14a-(1-methylcyclopropylsulfonylcarbamoyl)-5,16-dioxo-1,2,3,5,6,7,8,9,10,11,13a,14,14a,15,16,16a-hexadecahydrocyclopropa[e]pyrrolo[1,2-a][1,4]diazacyclopentadecin-6-ylcarbamate] | < 5.46 | < 5.46 |  |  | 
12 | CC(C)Oc1ccc2c(O[C@@H]3C[C@H]4C(=O)N[C@]5(C(=O)NS(=O)(=O)C6CC6)C[C@H]5/C=C\CC[C@H](C)C[C@@H](C)[C@H](NC(=O)O[C@H](C)C(F)(F)F)C(=O)N4C3)nccc2c1 [Compound 5149, (R)-1,1,1-trifluoropropan-2-yl((2R,6S,7R,9S,13aS,14aR,16aS,Z)-14a-((cyclopropylsulfonyl)carbamoyl)-2-((6-isopropoxyisoquinolin-1-yl)oxy)-7,9-dimethyl-5,16-dioxo-1,2,3,5,6,7,8,9,10,11,13a,14,14a,15,16,16a-hexadecahydrocyclopropa[e]pyrrolo[1,2-a][1,4]diazacyclopentadecin-6-yl)carbamate] | < 5.46 | 4.82 to 103 |  |  | 
13 | COc1ccc2c(O[C@@H]3C[C@H]4C(=O)N[C@]5(C(=O)NS(=O)(=O)C6CC6)C[C@H]5/C=C\CC[C@H](C)C[C@@H](C)[C@H](NC(=O)O[C@@H]5C[C@@H]6C[C@@H]6C5)C(=O)N4C3)nc(-c3ccc(OC)c(F)c3)cc2c1 [Compound 3057, (1R,3r,5S)-bicyclo[3.1.0]hexan-3-yl((2R,6S,7R,9S,13aS,14aR,16aS,Z)-14a-((cyclopropylsulfonyl)carbamoyl)-2-((3-(3-fluoro-4-methoxyphenyl)-6-methoxyisoquinolin-1-yl)oxy)-7,9-dimethyl-5,16-dioxo-1,2,3,5,6,7,8,9,10,11,13a,14,14a,15,16,16a-hexadecahydrocyclopropa[e]pyrrolo[1,2-a][1,4]diazacyclopentadecin-6-yl)carbamate] |  |  | < 5.46 | < 5.46 | 

Source: patent US9499550B2 (BRISTOL-MYERS SQUIBB COMPANY, priority 2012, dated 2016)
